For the data set the following is noted: mouse, in vivo, iv.

Among the data in article PMC7275043 (Nature Communications, 2020) are half-life in blood values, retold here.

With Ac-WDLIQLIVSDGSDLIQLIVSD-NH2 [12B], the half-life in blood is < 10 min.
